pIC50: −log10 of the molar value. Read-outs that look alike come from different tables or passages of the source.
How the values were obtained:
c-Kit(V654A) = c-Kit(V654A) (Homo sapiens, UniProt P10721, V654A); experiment: c-Kit(V654A) assay; assay type: biochemical
Method: c-Kit(V654A) (N-terminal GST-tagged, recombinant human c-Kit, amino acids 544-end containing the V654A mutation) is incubated with 8 mM MOPS pH 7.0, 0.2 mM EDTA, 250 μM GGMEDIYEFMGGKKK, 10 mM MgAcetate and [gamma-33P-ATP](specific activity approx. 500 cpm/pmol, concentration 200 μM). The reaction is initiated by the addition of the MgATP mix. After incubation for 40 minutes at room temperature, the reaction is stopped by the addition of 3% phosphoric acid solution. 10 μL of the reaction is then spotted onto a P30 filtermat and washed three times for 5 minutes in 75 mM phosphoric acid and once in methanol prior to drying and scintillation counting.

[1] = target: mutant cKIT (560-576 and V654A) in GIST430/654 cell line (Homo sapiens (Human), UniProt P10721, DEL560-576/V654A); experiment: Cellular testing of cKIT mutant inhibitors: phospho-Y307-cKIT Luminex assay in GIST430/654 cells; assay type: cell-based; conditions: read-out: GIST 430/654 IC50
Method: Assay Principle for Cellular Testing of cKIT Mutant Inhibitors
The GIST430/654 cell line expressing mutated constitutively active cKIT receptor tyrosine kinase ([…]560-576 and V654A) was employed for assessing cellular potency of compounds. Cellular activity of mutant cKIT was determined by the degree of cKIT autophosphorylation at tyrosine 307 using a Luminex-based bead assay. GIST430/654 cells were plated with 25,000 cells per well of a 96-well plate in 100 μl medium (85% IMDM/15% FCS supplemented with 100 nM Imatinib). At the following day compounds were added in a serial dilution for 45 min. Then, cells were lysed with 90 μl lysis buffer (20 mM Hepes pH 7.5, 200 mM NaCl, 1.5 mM MgCl2×6H2O, 0.4 mM EDTA, 1% Triton-X-100, 1% Phosphatase-Inhibitor II, 20 mM D-Glycerolphosphat, 0.1% Protease-Inhibitor Cocktail III, 0.01% Benzonase) und lysates were cleared by centrifugation through a 96-well filter plate (0.65 μm). Samples were incubated with Luminex-beads which were coupled with an anti-total cKIT antibody overnight at 4° C. under gentle agitation. For detection of phospho-Y307-cKIT a phosphospecific antibody and a species-specific PE-labelled secondary antibody were added. The amount of phospho-Y307-cKIT was determined in a Luminex 200 instrument measuring 100 events per well within 60 seconds.
Counts from samples treated with compounds were calculated as percent of control from solvent treated (0.3% DMSO) samples. Dose-response curves were fitted and IC50 values were determined using Genedata Screener software.

[2] = Table 1, cKIT autophosphorylation, compounds 45 min
[3] = Table 2, isoxazole derivatives presently described
[4] = Table 2, corresponding triazole derivatives

mutant cKIT (560-576 and V654A) in GIST430/654 cell line, sequence (P10721 other isoform, or with tags, fused parts or gaps V654A/del 1-25/del 560-576 limits assumed): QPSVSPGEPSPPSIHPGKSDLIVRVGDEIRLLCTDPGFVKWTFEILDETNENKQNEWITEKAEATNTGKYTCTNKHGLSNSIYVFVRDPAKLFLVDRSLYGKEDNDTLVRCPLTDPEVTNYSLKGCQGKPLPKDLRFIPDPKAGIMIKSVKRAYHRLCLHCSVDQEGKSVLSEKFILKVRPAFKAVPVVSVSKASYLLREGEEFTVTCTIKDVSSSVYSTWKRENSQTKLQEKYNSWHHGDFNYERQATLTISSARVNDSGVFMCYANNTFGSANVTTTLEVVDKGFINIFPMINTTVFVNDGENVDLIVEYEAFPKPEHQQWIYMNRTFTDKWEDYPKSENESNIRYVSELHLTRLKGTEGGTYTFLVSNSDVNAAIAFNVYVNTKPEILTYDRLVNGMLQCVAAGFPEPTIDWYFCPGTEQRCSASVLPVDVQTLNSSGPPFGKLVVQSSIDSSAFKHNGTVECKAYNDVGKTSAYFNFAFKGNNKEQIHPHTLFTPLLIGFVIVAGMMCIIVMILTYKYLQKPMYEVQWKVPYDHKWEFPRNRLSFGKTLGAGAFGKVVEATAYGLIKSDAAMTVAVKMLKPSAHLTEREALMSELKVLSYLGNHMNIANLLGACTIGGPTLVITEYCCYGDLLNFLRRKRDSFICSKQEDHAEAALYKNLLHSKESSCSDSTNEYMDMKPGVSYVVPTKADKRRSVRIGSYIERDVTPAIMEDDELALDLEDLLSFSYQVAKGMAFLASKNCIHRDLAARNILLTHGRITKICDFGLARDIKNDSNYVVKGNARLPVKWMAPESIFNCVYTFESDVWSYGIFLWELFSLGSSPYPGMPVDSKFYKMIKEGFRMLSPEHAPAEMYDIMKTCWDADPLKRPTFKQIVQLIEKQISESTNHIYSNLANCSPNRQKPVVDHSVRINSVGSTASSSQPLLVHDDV

pIC50 (c-Kit(V654A); Table 1, 200 μM ATP)	pIC50 [1, 2]	SMILES	also measured
9.24	6.49	COCCOc1cc2[nH]nc(-c3cc(-c4ccc(C(=O)N5CC[C@H]6CNC(=O)[C@H]65)cc4)no3)c2cc1F (relative stereo) [A89, (cis)-1-(4-{5-[5-fluoro-6-(2-methoxyethoxy)-1H-indazol-3-yl]-1,2-oxazol-3-yl}benzoyl)-octahydropyrrolo[3,4-b]pyrrol-6-one]	–
9.46	7.07	COCCOc1cc2[nH]nc(-c3cc(-c4ccc(N5CC[C@@H]6[C@H]5CCCN6C)cc4)no3)c2cc1F (relative stereo) [A124, 3-(3-{4-[(cis)-4-methyl-octahydro-1H-pyrrolo[3,2-b]pyridin-1-yl]phenyl}-1,2-oxazol-5-yl)-5-fluoro-6-(2-methoxyethoxy)-1H-indazole]	–
8.72	6.64	COCCOc1cc2[nH]nc(-c3cc(-c4ccc(N5CC[C@H]6[C@@H]5CCN6C)cc4)no3)c2cc1F (relative stereo) [A125, 3-(3-{4-[(cis)-4-methyl-octahydropyrrolo[3,2-b]pyrrol-1-yl]phenyl}-1,2-oxazol-5-yl)-5-fluoro-6-(2-methoxyethoxy)-1H-indazole]	–
8.77	6.70	COCCOc1cc2[nH]nc(-c3cc(-c4ccc(N5CC[C@@H]6[C@@H]5CCN6C)cc4)no3)c2cc1F (relative stereo) [A126, 3-(3-{4-[(trans)-4-methyl-octahydropyrrolo[3,2-b]pyrrol-1-yl]phenyl}-1,2-oxazol-5-yl)-5-fluoro-6-(2-methoxyethoxy)-1H-indazole]	–
8.85	6.25	COCCOc1cc2[nH]nc(-c3cc(-c4ccc(C(=O)N5C[C@H]6CC(=O)N[C@H]6C5)cc4)no3)c2cc1F (relative stereo) [A203, (cis)-5-(4-{5-[5-fluoro-6-(2-methoxyethoxy)-1H-indazol-3-yl]-1,2-oxazol-3-yl}benzoyl)-octahydropyrrolo[2,3-c]pyrrol-2-one]	–
9.36	7.43	COCCOc1cc2[nH]nc(-c3cc(-c4ccc(C(=O)N5C[C@H]6COCC[C@H]6C5)cc4)no3)c2cc1F (relative stereo) [A214, 3-(3-{4-[(cis)-octahydropyrano[3,4-c]pyrrole-2-carbonyl]phenyl}-1,2-oxazol-5-yl)-5-fluoro-6-(2-methoxyethoxy)-1H-indazole]	–
9.12	7.46	COCCOc1cc2[nH]nc(-c3cc(-c4ccc(C(=O)N5CC[C@@H]6COC[C@@H]6C5)cc4)no3)c2cc1F (relative stereo) [A215, 3-(3-{4-[(cis)-octahydrofuro[3,4-c]pyridine-5-carbonyl]phenyl}-1,2-oxazol-5-yl)-5-fluoro-6-(2-methoxyethoxy)-1H-indazole]	–
7.82	6.46	CC(C)(O)C1CCCN1C(=O)c1ccc(-c2cc(-c3n[nH]c4cc(C(F)(F)F)ccc34)on2)cc1 (stereo not drawn) [A1, 2-[1-(4-{5-[6-(trifluoromethyl)-1H-indazol-3-yl]-1,2-oxazol-3-yl}benzoyl)pyrrolidin-2-yl]propan-2-ol]	–
8.32	6.60	COCCOc1ccc2c(-c3cc(-c4ccc(C(=O)N5CCC[C@@H]5C(C)(C)O)cc4)no3)n[nH]c2c1 [A2, 2-[(2R)-1-(4-{5-[6-(2-methoxyethoxy)-1H-indazol-3-yl]-1,2-oxazol-3-yl}benzoyl)pyrrolidin-2-yl]propan-2-ol]	–
8.85	7.42	COCCOc1cc2[nH]nc(-c3cc(-c4ccc(C(=O)N5CCN(C)C[C@@H]5C)cc4)no3)c2cc1F [A3, 3-(3-{4-[(2S)-2,4-dimethylpiperazine-1-carbonyl]phenyl}-1,2-oxazol-5-yl)-5-fluoro-6-(2-methoxyethoxy)-1H-indazole]	pIC50 (c-Kit(V654A); [3]): 8.85; pIC50 [1, 3]: 7.42
7.89	6.48	CC(C)(O)[C@@H]1CCCN1C(=O)c1ccc(-c2cc(-c3n[nH]c4cc(Br)ccc34)on2)cc1 [A4, {4-[5-(6-bromo-1H-indazol-3-yl)-isoxazol-3-yl]-phenyl}-[(S)-2-(1-hydroxy-1-methyl-ethyl)-pyrrolidin-1-yl]-methanone]	–
9.26	7.70	COCCOc1cc2[nH]nc(-c3cc(-c4ccc(C(=O)N5CCC[C@H]5C(C)(C)O)cc4)no3)c2cc1F [A5, 2-[(2S)-1-(4-{5-[5-fluoro-6-(2-methoxyethoxy)-1H-indazol-3-yl]-1,2-oxazol-3-yl}benzoyl)pyrrolidin-2-yl]propan-2-ol]	–
8.39	6.82	COCCOc1cc2[nH]nc(-c3cc(-c4ccc(C(=O)N(C)C)cc4)no3)c2cc1C#N [A6, 4-{5-[5-cyano-6-(2-methoxyethoxy)-1H-indazol-3-yl]-1,2-oxazol-3-yl}-N,N-dimethylbenzamide]	–
9.12	7.40	COCCOc1cc2[nH]nc(-c3cc(-c4ccc(C(=O)N5CCC[C@H]5CS(C)(=O)=O)cc4)no3)c2cc1F [A7, 5-fluoro-3-(3-{4-[(2S)-2-(methanesulfonylmethyl)pyrrolidine-1-carbonyl]phenyl}-1,2-oxazol-5-yl)-6-(2-methoxyethoxy)-1H-indazole]	–
7.70	6.55	Cn1cc(-c2ccc3c(-c4cc(-c5ccc(C(=O)N6CCC[C@@H]6C(C)(C)O)cc5)no4)n[nH]c3c2)cn1 [A8, 2-[(2R)-1-(4-{5-[6-(1-methyl-1H-pyrazol-4-yl)-1H-indazol-3-yl]-1,2-oxazol-3-yl}benzoyl)pyrrolidin-2-yl]propan-2-ol]	–
8.06	6.89	C[C@H]1CN(C)CCN1C(=O)c1ccc(-c2cc(-c3n[nH]c4cc(-c5cnn(C)c5)ccc34)on2)cc1 [A9, 3-(3-{4-[(2S)-2,4-dimethylpiperazine-1-carbonyl]phenyl}-1,2-oxazol-5-yl)-6-(1-methyl-1H-pyrazol-4-yl)-1H-indazole]	–
8.80	6.74	COCCOc1cc2[nH]nc(-c3cc(-c4ccc(C(=O)N5CCN(C)C[C@@H]5C)cc4)on3)c2cc1Cl [A10, 5-chloro-3-(5-{4-[(2S)-2,4-dimethylpiperazine-1-carbonyl]phenyl}-1,2-oxazol-3-yl)-6-(2-methoxyethoxy)-1H-indazole]	–
8.09	–	COC(=O)c1ccc2c(-c3cc(-c4ccc(C(=O)N(C)C)cc4)no3)n[nH]c2c1 [A19, methyl 3-{3-[4-(dimethylcarbamoyl)phenyl]-1,2-oxazol-5-yl}-1H-indazole-6-carboxylate]	–
7.06	–	CNC(=O)c1ccc2c(-c3cc(-c4ccc(C(=O)N(C)C)cc4)no3)n[nH]c2c1 [A24, 3-[3-(4-dimethylcarbamoyl-phenyl)-isoxazol-5-yl]-1H-indazole-6-carboxylic acid methylamide]	–
7.89	–	COCCOc1cc2[nH]nc(-c3cc(-c4cncs4)no3)c2cc1F [A48, 5-fluoro-6-(2-methoxyethoxy)-3-[3-(1,3-thiazol-5-yl)-1,2-oxazol-5-yl]-1H-indazole]	–
7.12	–	COCCOc1cc2[nH]nc(-c3cc(-c4ncc(C(=O)N5CC(N6CCOCC6)C5)s4)no3)c2cc1F [A83, 5-fluoro-6-(2-methoxyethoxy)-3-(3-{5-[3-(morpholin-4-yl)azetidine-1-carbonyl]-1,3-thiazol-2-yl}-1,2-oxazol-5-yl)-1H-indazole]	–
7.16	–	COCCOc1cc2[nH]nc(-c3cc(-c4ncc(C(=O)N5CC(F)C5)s4)no3)c2cc1F [A86, 5-fluoro-3-{3-[5-(3-fluoroazetidine-1-carbonyl)-1,3-thiazol-2-yl]-1,2-oxazol-5-yl}-6-(2-methoxyethoxy)-1H-indazole]	–
7.27	–	COCCOc1cc2[nH]nc(-c3cc(-c4ccc(N5CCS(=O)(=O)CC5)cc4)no3)c2cc1F [A122, 4-(4-{5-[5-fluoro-6-(2-methoxyethoxy)-1H-indazol-3-yl]-1,2-oxazol-3-yl}phenyl)-1lambda6-thiomorpholine-1,1-dione]	–
7.57	–	COCCOc1cc2[nH]nc(-c3cc(-c4ccc(OC)nc4)no3)c2cc1F [A130, 5-fluoro-6-(2-methoxy-ethoxy)-3-[3-(6-methoxy-pyridin-3-yl)-isoxazol-5-yl]-1H-indazole]	–
–	–	COCCOc1cc2[nH]nc(-c3cn(-c4ccc(C(=O)N5CCOCC5)cc4)nn3)c2cc1F [reference compound]	pIC50 [1, 4]: 6.31
–	–	COCCOc1cc2[nH]nc(-c3cn(-c4ccc(C(=O)N(C)C)cc4)nn3)c2cc1F [reference compound]	pIC50 (c-Kit(V654A); [4]): 7.96
